# What was measured:
# [1] = test system: COLO 205; assay: Growth inhibition of human COLO 205 cells assessed as growth percentage at 10 uM measured after 48 hrs by sulforhodamine B assay relative to control; assay type: functional; details: read-out: Activity
# [2] = test system: SF-295; assay: cells; assay type: functional; details: Homo sapiens, time 48 hrs
# Description: Growth inhibition of human SF-295 cells incubated for 48 hrs by sulforhodamine B assay
# [3] = test system: LOX IMVI; assay: cells; assay type: functional; details: Homo sapiens, time 48 hrs
# Description: Growth inhibition of human LOX IMVI cells incubated for 48 hrs by sulforhodamine B assay
# [4] = test system: UO-31; assay: cells; assay type: functional; details: Homo sapiens, time 48 hrs
# Description: Growth inhibition of human UO-31 cells incubated for 48 hrs by sulforhodamine B assay
# [5] = test system: OVCAR-8; assay: cells; assay type: functional; details: Homo sapiens, time 48 hrs
# Description: Growth inhibition of human OVCAR-8 cells incubated for 48 hrs by sulforhodamine B assay
# [6] = test system: SK-MEL-28; assay: cells; assay type: functional; details: Homo sapiens, time 48 hrs
# Description: Growth inhibition of human SK-MEL-28 cells incubated for 48 hrs by sulforhodamine B assay
# [7] = test system: SNB-75; assay: cells; assay type: functional; details: Homo sapiens, time 48 hrs
# Description: Growth inhibition of human SNB-75 cells incubated for 48 hrs by sulforhodamine B assay
# [8] = test system: Panel NCI-60 (60 carcinoma cell lines); assay: cells; assay type: functional; details: Homo sapiens, time 48 hrs; for CC50: read-out: LC50 (the source's name)
# Description: Growth inhibition of human Panel NCI-60 (60 carcinoma cell lines) incubated for 48 hrs by sulforhodamine B assay
# [9] = test system: Panel prostate (Carcinoma cell lines); assay: cells; assay type: functional; details: Homo sapiens, time 48 hrs
# Description: Growth inhibition of human Panel prostate (Carcinoma cell lines) incubated for 48 hrs by sulforhodamine B assay
# [10] = test system: A549; assay: cells; assay type: functional; details: Homo sapiens, time 48 hrs
# Description: Growth inhibition of human A549/ATCC cells incubated for 48 hrs by sulforhodamine B assay
# [11] = test system: TK-10; assay: cells; assay type: functional; details: Homo sapiens, time 48 hrs
# Description: Growth inhibition of human TK-10 cells incubated for 48 hrs by sulforhodamine B assay
# [12] = test system: Panel ovarian (Carcinoma cell lines); assay: cells; assay type: functional; details: Homo sapiens, time 48 hrs
# Description: Growth inhibition of human Panel ovarian (Carcinoma cell lines) incubated for 48 hrs by sulforhodamine B assay
# [13] = test system: UACC-62; assay: cells; assay type: functional; details: Homo sapiens, time 48 hrs
# Description: Growth inhibition of human UACC-62 cells incubated for 48 hrs by sulforhodamine B assay
# [14] = test system: KM12; assay: cells; assay type: functional; details: Homo sapiens, time 48 hrs
# Description: Growth inhibition of human KM12 cells incubated for 48 hrs by sulforhodamine B assay
# [15] = test system: MDA-MB-231; assay: cells; assay type: functional; details: Homo sapiens, time 48 hrs
# Description: Growth inhibition of human MDA-MB-231/ATCC cells incubated for 48 hrs by sulforhodamine B assay
# [16] = test system: MCF7; assay: cells; assay type: functional; details: Homo sapiens, time 48 hrs
# Description: Growth inhibition of human MCF7 cells incubated for 48 hrs by sulforhodamine B assay
# [17] = test system: A498; assay: cells; assay type: functional; details: Homo sapiens, time 48 hrs
# Description: Growth inhibition of human A498 cells incubated for 48 hrs by sulforhodamine B assay
# [18] = test system: NCI-H23; assay: cells; assay type: functional; details: Homo sapiens, time 48 hrs
# Description: Growth inhibition of human NCI-H23 cells incubated for 48 hrs by sulforhodamine B assay
# [19] = test system: Panel leukemia (Carcinoma cell lines); assay: cells; assay type: functional; details: Homo sapiens, time 48 hrs
# Description: Growth inhibition of human Panel leukemia (Carcinoma cell lines) incubated for 48 hrs by sulforhodamine B assay
# [20] = test system: HOP-92; assay: cells; assay type: functional; details: Homo sapiens, time 48 hrs
# Description: Growth inhibition of human HOP-92 cells incubated for 48 hrs by sulforhodamine B assay
# [21] = test system: HCT-116; assay: cells; assay type: functional; details: Homo sapiens, time 48 hrs
# Description: Growth inhibition of human HCT-116 cells incubated for 48 hrs by sulforhodamine B assay
# [22] = test system: NCI-H322M; assay: cells; assay type: functional; details: Homo sapiens, time 48 hrs
# Description: Growth inhibition of human NCI-H322M cells incubated for 48 hrs by sulforhodamine B assay
# [23] = test system: Panel CNS (Carcinoma cell lines); assay: cells; assay type: functional; details: Homo sapiens, time 48 hrs; for CC50: read-out: LC50 (the source's name)
# Description: Growth inhibition of human Panel CNS (Carcinoma cell lines) incubated for 48 hrs by sulforhodamine B assay
# [24] = test system: Panel breast (Carcinoma cell lines); assay: cells; assay type: functional; details: Homo sapiens, time 48 hrs; for CC50: read-out: LC50 (the source's name)
# Description: Growth inhibition of human Panel breast (Carcinoma cell lines) incubated for 48 hrs by sulforhodamine B assay
# [25] = test system: Panel renal (Carcinoma cell lines); assay: cells; assay type: functional; details: Homo sapiens, time 48 hrs
# Description: Growth inhibition of human Panel renal (Carcinoma cell lines) incubated for 48 hrs by sulforhodamine B assay
# [26] = test system: SR; assay: cells; assay type: functional; details: Homo sapiens, time 48 hrs
# Description: Growth inhibition of human SR cells incubated for 48 hrs by sulforhodamine B assay
# [27] = test system: U-251; assay: cells; assay type: functional; details: Homo sapiens, time 48 hrs
# Description: Growth inhibition of human U-251 cells incubated for 48 hrs by sulforhodamine B assay
# [28] = test system: NCI-H522; assay: cells; assay type: functional; details: Homo sapiens, time 48 hrs
# Description: Growth inhibition of human NCI-H522 cells incubated for 48 hrs by sulforhodamine B assay
# [29] = cells; assay type: functional; details: Homo sapiens, Non-small cell lung cancer cell line; time 48 hrs
# Description: Growth inhibition of human Non-small cell lung cancer cell line incubated for 48 hrs by sulforhodamine B assay
# [30] = test system: RXF 393; assay: cells; assay type: functional; details: Homo sapiens, time 48 hrs
# Description: Growth inhibition of human RXF 393 cells incubated for 48 hrs by sulforhodamine B assay
# [31] = test system: IGROV-1; assay: cells; assay type: functional; details: Homo sapiens, time 48 hrs
# Description: Growth inhibition of human IGROV-1 cells incubated for 48 hrs by sulforhodamine B assay
# [32] = test system: HOP-62; assay: cells; assay type: functional; details: Homo sapiens, time 48 hrs
# Description: Growth inhibition of human HOP-62 cells incubated for 48 hrs by sulforhodamine B assay
# [33] = test system: Hs-578T; assay: cells; assay type: functional; details: Homo sapiens, time 48 hrs
# Description: Growth inhibition of human Hs-578T cells incubated for 48 hrs by sulforhodamine B assay
# [34] = test system: MDA-MB-468; assay: cells; assay type: functional; details: Homo sapiens, time 48 hrs
# Description: Growth inhibition of human MDA-MB-468 cells incubated for 48 hrs by sulforhodamine B assay
# [35] = test system: HCT-15; assay: cells; assay type: functional; details: Homo sapiens, time 48 hrs
# Description: Growth inhibition of human HCT-15 cells incubated for 48 hrs by sulforhodamine B assay
# [36] = test system: NCI-H460; assay: cells; assay type: functional; details: Homo sapiens, time 48 hrs
# Description: Growth inhibition of human NCI-H460 cells incubated for 48 hrs by sulforhodamine B assay
# [37] = test system: OVCAR-3; assay: cells; assay type: functional; details: Homo sapiens, time 48 hrs
# Description: Growth inhibition of human OVCAR-3 cells incubated for 48 hrs by sulforhodamine B assay
# [38] = test system: K562; assay: cells; assay type: functional; details: Homo sapiens, time 48 hrs
# Description: Growth inhibition of human K562 cells incubated for 48 hrs by sulforhodamine B assay
# [39] = test system: Panel melanoma (Carcinoma cell lines); assay: cells; assay type: functional; details: Homo sapiens, time 48 hrs
# Description: Growth inhibition of human Panel melanoma (Carcinoma cell lines) incubated for 48 hrs by sulforhodamine B assay
# [40] = test system: OVCAR-4; assay: cells; assay type: functional; details: Homo sapiens, time 48 hrs
# Description: Growth inhibition of human OVCAR-4 cells incubated for 48 hrs by sulforhodamine B assay
# [41] = test system: NCI-H226; assay: cells; assay type: functional; details: Homo sapiens, time 48 hrs
# Description: Growth inhibition of human NCI-H226 cells incubated for 48 hrs by sulforhodamine B assay
# [42] = test system: CCRF-CEM; assay: cells; assay type: functional; details: Homo sapiens, time 48 hrs
# Description: Growth inhibition of human CCRF-CEM cells incubated for 48 hrs by sulforhodamine B assay
# [43] = test system: Panel colon (Carcinoma cell lines); assay: cells; assay type: functional; details: Homo sapiens, time 48 hrs; for CC50: read-out: LC50 (the source's name)
# Description: Growth inhibition of human Panel colon (Carcinoma cell lines) incubated for 48 hrs by sulforhodamine B assay
# [44] = test system: UACC-257; assay: cells; assay type: functional; details: Homo sapiens, time 48 hrs
# Description: Growth inhibition of human UACC-257 cells incubated for 48 hrs by sulforhodamine B assay
# [45] = test system: HT-29; assay: cells; assay type: functional; details: Homo sapiens, time 48 hrs
# Description: Growth inhibition of human HT-29 cells incubated for 48 hrs by sulforhodamine B assay
# [46] = test system: PC-3; assay: cells; assay type: functional; details: Homo sapiens, time 48 hrs
# Description: Growth inhibition of human PC-3 cells incubated for 48 hrs by sulforhodamine B assay
# [47] = test system: SK-MEL-5; assay: Growth inhibition of human SK-MEL-5 cells assessed as growth percentage at 10 uM measured after 48 hrs by sulforhodamine B assay relative to control; assay type: functional; details: read-out: Activity
# [48] = test system: 786-0; assay: Growth inhibition of human 786-0 cells assessed as growth percentage at 10 uM measured after 48 hrs by sulforhodamine B assay relative to control; assay type: functional; details: read-out: Activity
# [49] = Cytotoxicity against human HFF-1 cells assessed as cell growth inhibition at 10 uM by MTT assay relative to control; assay type: cell-based; details: read-out: GI
# [50] = test system: SK-MEL-28; assay: Growth inhibition of human SK-MEL-28 cells assessed as growth percentage at 10 uM measured after 48 hrs by sulforhodamine B assay relative to control; assay type: functional; details: read-out: Activity
# [51] = Cytotoxicity against human HFF-1 cells assessed as cell growth inhibition at 1 uM by MTT assay relative to control; assay type: cell-based; details: read-out: GI
# [52] = Cytotoxicity against human HFF-1 cells assessed as cell growth inhibition at 0.1 uM by MTT assay relative to control; assay type: cell-based; details: read-out: GI
# [53] = Cytotoxicity against human HFF-1 cells assessed as cell growth inhibition by MTT assay; assay type: cell-based
structure (smiles),measurement,setting,value
Fc1ccc(Nc2ccc3c(OCCCN4CCOCC4)cccc3n2)cc1F,growth at 10 µM,[1],66.5%
CN1CCN(CCCOc2cccc3nc(Nc4ccc(F)c(F)c4)ccc23)CC1,GI50,[2],4640 nM
same,GI50,[3],1030 nM
same,GI50,[4],4340 nM
same,GI50,[5],5130 nM
same,GI50,[6],1080 nM
same,GI50,[7],3920 nM
same,GI50,[8],2630 nM
same,TGI,[8],6760 nM
same,CC50,[8],16200 nM
same,GI50,[9],4070 nM
same,LC50 (concentration killing 50% of cells),[9],18000 nM
same,TGI,[9],8550 nM
same,GI50,[10],3500 nM
same,GI50,[11],2630 nM
same,GI50,[12],5130 nM
same,LC50,[12],20500 nM
same,TGI,[12],10800 nM
same,GI50,[13],700 nM
same,GI50,[14],2350 nM
same,GI50,[15],937 nM
same,GI50,[16],3330 nM
same,GI50,[17],5660 nM
same,GI50,[18],4670 nM
same,GI50,[19],2600 nM
same,LC50 (50% lethal concentration),[19],21100 nM
same,TGI,[19],7090 nM
same,GI50,[20],1430 nM
same,GI50,[21],3800 nM
same,GI50,[22],3930 nM
same,GI50,[23],4100 nM
same,TGI,[23],9090 nM
same,CC50,[23],16100 nM
same,GI50,[24],3140 nM
same,TGI,[24],7980 nM
same,CC50,[24],20300 nM
same,GI50,[25],4160 nM
same,LC50 (lethal concentration 50%),[25],18900 nM
same,TGI,[25],8980 nM
same,GI50,[26],870 nM
same,GI50,[27],2680 nM
same,GI50,[28],1010 nM
same,GI50,[29],3170 nM
same,LC50 (50% lethal concentration),[29],18900 nM
same,TGI,[29],7790 nM
same,GI50,[30],2110 nM
same,GI50,[31],5550 nM
same,GI50,[32],1250 nM
same,GI50,[33],4730 nM
same,GI50,[34],2110 nM
same,GI50,[35],960 nM
same,GI50,[36],2370 nM
same,GI50,[37],4580 nM
same,GI50,[38],660 nM
same,GI50,[39],1690 nM
same,LC50,[39],10500 nM
same,TGI,[39],4400 nM
same,GI50,[40],6420 nM
same,GI50,[41],5510 nM
same,GI50,[42],2420 nM
same,GI50,[43],2110 nM
same,TGI,[43],5900 nM
same,CC50,[43],12200 nM
same,GI50,[44],660 nM
same,GI50,[45],620 nM
same,GI50,[46],3830 nM
same,growth at 10 µM,[47],-26.8%
FC(F)(F)c1cc(Nc2ccc3c(OCCCN4CCOCC4)cccc3n2)ccc1Cl,GI50,[2],1890 nM
same,GI50,[3],1730 nM
same,GI50,[4],1630 nM
same,GI50,[5],4330 nM
same,GI50,[6],1850 nM
same,GI50,[7],1890 nM
same,GI50,[8],2190 nM
same,GI50,[9],2520 nM
same,GI50,[11],3490 nM
same,GI50,[12],3010 nM
same,GI50,[13],2050 nM
same,GI50,[14],2070 nM
same,GI50,[15],1820 nM
same,GI50,[16],1660 nM
same,GI50,[17],3120 nM
same,GI50,[18],2000 nM
same,GI50,[19],1930 nM
same,GI50,[20],1240 nM
same,GI50,[21],2070 nM
same,GI50,[22],2520 nM
same,GI50,[23],1960 nM
same,GI50,[24],2210 nM
same,GI50,[25],2510 nM
same,GI50,[26],2140 nM
same,GI50,[27],1800 nM
same,GI50,[29],2320 nM
same,GI50,[30],1780 nM
same,GI50,[31],3960 nM
same,GI50,[32],1870 nM
same,GI50,[33],2970 nM
same,GI50,[34],2170 nM
same,GI50,[35],1640 nM
same,GI50,[36],2750 nM
same,GI50,[37],2020 nM
same,GI50,[38],2140 nM
same,GI50,[39],1950 nM
same,growth at 10 µM,[48],37.8%
same,GI50,[40],3070 nM
same,GI50,[41],3540 nM
same,GI50,[42],1630 nM
same,GI50,[43],1850 nM
same,GI50,[45],1740 nM
same,GI50,[46],2260 nM
CN1CCN(CCCOc2cccc3nc(Nc4cccc(Cl)c4)ccc23)CC1,GI50,[2],1910 nM
same,GI50,[3],1680 nM
same,GI50,[4],1840 nM
same,GI50,[5],1900 nM
same,GI50,[6],1650 nM
same,GI50,[7],1380 nM
same,inhibition at 10 µM,[49],22.4%
same,GI50,[8],1910 nM
same,TGI,[8],4170 nM
same,CC50,[8],10700 nM
same,GI50,[9],1900 nM
same,LC50 (concentration killing 50% of cells),[9],7020 nM
same,TGI,[9],3650 nM
same,GI50,[10],2020 nM
same,GI50,[11],1670 nM
same,GI50,[12],2010 nM
same,LC50,[12],11500 nM
same,TGI,[12],4310 nM
same,GI50,[13],1910 nM
same,GI50,[14],1780 nM
same,GI50,[16],1570 nM
same,GI50,[17],1880 nM
same,GI50,[18],2270 nM
same,GI50,[19],1990 nM
same,LC50 (50% lethal concentration),[19],38000 nM
same,TGI,[19],4650 nM
same,GI50,[20],1650 nM
same,GI50,[21],1550 nM
same,GI50,[22],2670 nM
same,GI50,[23],1890 nM
same,TGI,[23],4000 nM
same,CC50,[23],23300 nM
same,growth at 10 µM,[50],35.5%
same,GI50,[24],1850 nM
same,TGI,[24],6690 nM
same,CC50,[24],20800 nM
same,GI50,[25],1900 nM
same,LC50 (lethal concentration 50%),[25],17400 nM
same,TGI,[25],5370 nM
same,GI50,[26],2200 nM
same,GI50,[27],1890 nM
same,GI50,[28],1480 nM
same,GI50,[29],3730 nM
same,LC50 (50% lethal concentration),[29],23900 nM
same,TGI,[29],8650 nM
same,GI50,[30],1850 nM
same,GI50,[31],2230 nM
same,GI50,[32],1720 nM
same,GI50,[33],1830 nM
same,inhibition at 1 µM,[51],12.2%
same,GI50,[34],1610 nM
same,inhibition at 0.1 µM,[52],5.4%
same,GI50,[35],1580 nM
same,GI50,[36],1870 nM
same,GI50,[37],1450 nM
same,GI50,[53],> 10000 nM
same,GI50,[38],1790 nM
same,GI50,[39],1760 nM
same,LC50,[39],6450 nM
same,TGI,[39],3370 nM
same,GI50,[40],1940 nM
same,GI50,[41],1620 nM
same,GI50,[42],1680 nM
same,GI50,[43],1640 nM
same,TGI,[43],3100 nM
same,CC50,[43],5870 nM
same,GI50,[44],1810 nM
same,GI50,[45],1500 nM
same,GI50,[46],1810 nM
